Results: ChEMBL document CHEMBL1201862, “PubChem BioAssay data set” (2004)
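Briefly, cells in 96-well plates were exposed to five compound concentrations for 48 h, and endpoints were estimated by linear interpolation. GI50 is the concentration that inhibits growth by half.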 Calls of active or inactive are those of the source. Cut-off read from the data, not from the text of the source: active = GI50 up to about 1.1 µM and inactive = higher.

Key:
Assay in all cases: DTP human tumour cell line panel, 48 h
[1] = system: SF-539
[2] = system: CCRF-CEM
[3] = system: OVCAR-8
[4] = system: SNB-19
[5] = system: HCT-15
[6] = system: LXFL 529
[7] = system: M14
[8] = system: NCI-H226
[9] = system: HL-60
[10] = system: CAKI-1
[11] = system: A498
[12] = system: DMS-114
[13] = system: SR
[14] = system: NCI-H522
[15] = system: SF-295
[16] = system: 786-0
[17] = system: EKVX
[18] = system: ACHN
[19] = system: SW-620
[20] = system: M19-MEL
[21] = system: SK-MEL-2
[22] = system: A549
[23] = system: SNB-78
[24] = system: SK-MEL-28
[25] = system: TK-10
[26] = system: DMS-273
[27] = system: IGROV-1
[28] = system: NCI-H460
[29] = system: SNB-75
[30] = system: SK-MEL-5
[31] = system: RXF 393
[32] = system: HT-29
[33] = system: RXF 631
[34] = system: K562
[35] = system: SF-268
[36] = system: KM-20L2
[37] = system: U-251
[38] = system: OVCAR-5
[39] = system: COLO 205
[40] = system: SN12C
[41] = system: LOX IMVI
[42] = system: HCC 2998
[43] = system: SK-OV-3
[44] = system: OVCAR-3
[45] = system: UACC-62
[46] = system: HOP-92
[47] = system: Malme-3M
[48] = system: MOLT-4
[49] = system: RPMI-8226
[50] = system: UO-31
[51] = system: UACC-257
[52] = system: HOP-62
[53] = system: KM12
[54] = system: DLD-1
[55] = system: NCI-H23
[56] = system: HCT-116
[57] = system: HOP-18
[58] = system: OVCAR-4
[59] = system: XF498

Measured: GI50

O=[As](O)(O)c1cc(/N=N/c2ccc(-c3ccc(/N=N/c4cc([As](=O)(O)O)c(O)cc4O)cc3)cc2)c(O)cc1O
97.1 µM: [5]
inactive: [1] > 74.1 µM | [2] > 45.8 µM | [3] > 100 µM | [4] > 100 µM | [6] > 100 µM | [7] > 53 µM | [8] > 100 µM | [9] > 48.8 µM | [10] > 79.6 µM | [11] > 56 µM | [12] > 80.4 µM | [13] > 100 µM | [14] > 100 µM | [15] > 100 µM | [16] > 100 µM | [17] > 100 µM | [18] > 100 µM | [19] > 100 µM | [20] > 100 µM | [21] > 100 µM | [22] > 100 µM | [23] > 100 µM | [24] > 100 µM | [25] > 100 µM | [26] > 100 µM | [27] > 100 µM | [28] > 100 µM | [29] > 100 µM | [30] > 88.1 µM | [31] > 100 µM | [32] > 95.1 µM | [33] > 100 µM | [34] > 55.5 µM | [35] > 100 µM | [36] > 100 µM | [37] > 100 µM | [38] > 69.5 µM | [39] > 100 µM | [40] > 100 µM | [41] > 100 µM | [42] > 100 µM | [43] > 100 µM | [44] > 52.8 µM | [45] > 100 µM | [46] > 100 µM | [47] > 69.2 µM | [48] > 100 µM | [49] > 100 µM | [50] > 100 µM | [51] > 100 µM | [52] > 100 µM | [53] > 100 µM | [54] > 43 µM | [55] > 100 µM | [56] > 100 µM | [57] > 100 µM | [58] > 42.9 µM

CCOC(=O)[C@H](CCCNC(=O)OC(C)(C)C)NCc1ccc(OC)c(OC)c1
inactive: [1] > 100 µM | [2] > 100 µM | [3] > 100 µM | [4] > 100 µM | [6] > 100 µM | [7] > 100 µM | [8] > 100 µM | [9] > 100 µM | [10] > 100 µM | [11] > 100 µM | [12] > 100 µM | [13] > 100 µM | [14] > 100 µM | [59] > 100 µM | [15] > 100 µM | [16] > 100 µM | [17] > 100 µM | [18] > 100 µM | [19] > 100 µM | [20] > 100 µM | [21] > 100 µM | [22] > 100 µM | [24] > 100 µM | [25] > 100 µM | [26] > 100 µM | [27] > 100 µM | [29] > 100 µM | [30] > 100 µM | [31] > 100 µM | [32] > 100 µM | [33] > 100 µM | [34] > 100 µM | [35] > 100 µM | [36] > 100 µM | [37] > 100 µM | [38] > 100 µM | [39] > 100 µM | [40] > 100 µM | [41] > 100 µM | [42] > 100 µM | [43] > 100 µM | [44] > 100 µM | [45] > 100 µM | [46] > 100 µM | [47] > 100 µM | [48] > 100 µM | [50] > 100 µM | [51] > 100 µM | [52] > 100 µM | [53] > 100 µM | [54] > 100 µM | [55] > 100 µM | [56] > 100 µM | [57] > 100 µM | [58] > 100 µM

O=C1OC(c2cccc(C(F)(F)F)c2)c2ccc3ccccc3c21 (stereo not given)
inactive: [1] > 100 µM | [2] 9.06 µM | [3] > 10 µM | [4] > 10 µM | [6] 8.3 µM | [7] > 10 µM | [8] > 10 µM | [9] 5.5 µM | [10] > 10 µM | [11] > 10 µM | [12] 5.57 µM | [13] > 10 µM | [14] > 10 µM | [59] > 100 µM | [15] 12.2 µM | [16] > 10 µM | [17] > 10 µM | [18] > 10 µM | [19] > 10 µM | [20] > 10 µM | [21] > 10 µM | [22] 36.8 µM | [23] > 100 µM | [24] > 10 µM | [25] > 10 µM | [26] > 10 µM | [27] > 10 µM | [28] > 10 µM | [29] 18.7 µM | [30] 4.74 µM | [31] 13.5 µM | [32] > 10 µM | [33] 3.42 µM | [34] 4.76 µM | [35] > 10 µM | [36] > 10 µM | [37] 7.59 µM | [38] > 10 µM | [39] > 10 µM | [40] > 10 µM | [41] 8.45 µM | [42] > 10 µM | [43] > 10 µM | [44] > 10 µM | [45] 7.41 µM | [46] 91.8 µM | [47] > 10 µM | [48] 6.31 µM | [50] 9.68 µM | [51] 6.32 µM | [52] > 10 µM | [53] > 10 µM | [54] 4.79 µM | [55] 4.95 µM | [56] > 10 µM | [57] > 10 µM | [58] > 10 µM
8.22 µM: [5]

CCOC(=O)C1(C)C2=CC=C(O2)C(C)(C)C2=CC=C(O2)C(C)(C)C2=CC=C(O2)C(C)(C)C2=CC=C1O2
inactive: [1] > 100 µM | [2] 64.3 µM | [3] 76.2 µM | [4] > 100 µM | [6] > 100 µM | [8] > 100 µM | [9] 55.3 µM | [10] > 100 µM | [11] > 100 µM | [13] 68.1 µM | [14] > 100 µM | [59] > 100 µM | [15] > 100 µM | [16] > 100 µM | [17] > 100 µM | [18] > 100 µM | [19] > 100 µM | [20] > 100 µM | [21] > 100 µM | [22] 42.6 µM | [23] > 100 µM | [24] > 100 µM | [25] > 100 µM | [26] > 100 µM | [27] > 100 µM | [28] > 100 µM | [31] > 100 µM | [32] > 100 µM | [33] > 100 µM | [34] > 100 µM | [35] > 100 µM | [36] > 100 µM | [37] 48.3 µM | [38] > 100 µM | [39] 42.3 µM | [40] > 100 µM | [41] > 100 µM | [42] > 100 µM | [43] > 100 µM | [46] 36.5 µM | [47] > 100 µM | [48] 53.5 µM | [51] > 100 µM | [52] > 100 µM | [53] > 100 µM | [55] > 100 µM | [56] 46.9 µM | [57] > 100 µM | [58] 3.44 µM
> 100 µM: [5]

CCCCCCCCCCCCC(CCCCCCCCCCCC)OP(=O)(O)O
88.3 µM: [5]
inactive: [1] 46.2 µM | [2] > 100 µM | [3] > 100 µM | [4] 91.6 µM | [6] > 100 µM | [7] > 100 µM | [8] 75.9 µM | [9] 47.3 µM | [10] > 100 µM | [11] 20.6 µM | [12] > 100 µM | [13] > 100 µM | [14] 84.7 µM | [59] > 100 µM | [15] > 100 µM | [16] > 100 µM | [17] > 100 µM | [18] 76.2 µM | [19] > 100 µM | [20] > 100 µM | [21] 65.2 µM | [22] > 100 µM | [23] > 100 µM | [24] > 100 µM | [25] > 100 µM | [26] > 100 µM | [27] 87.3 µM | [28] > 100 µM | [29] 43.4 µM | [30] > 100 µM | [31] > 100 µM | [32] > 100 µM | [33] 94.4 µM | [34] 62.2 µM | [35] > 100 µM | [36] > 100 µM | [37] 34 µM | [38] > 100 µM | [39] > 100 µM | [40] > 100 µM | [41] > 100 µM | [42] > 100 µM | [43] > 100 µM | [44] > 100 µM | [45] > 100 µM | [46] 56.1 µM | [47] > 100 µM | [48] 59.2 µM | [49] 56.6 µM | [50] 55.6 µM | [51] > 100 µM | [52] > 100 µM | [53] > 100 µM | [54] > 100 µM | [55] > 100 µM | [56] 73.3 µM | [57] > 100 µM | [58] > 100 µM
